What all share (assay type): cell-based, Wistar rat
Assay [1] has as its system cultured fetal skin cell. Briefly: [3H]-thymidine uptake acceleration in cultured fetal skin cell. As to conditions: ghrelin 0.5, 5 and 50 pmol/mL (nM); incubated 24 or 48 hours; versus control without ghrelin; FIG. 3. The method, then:
The skin cells of a rat fetus were collected from a Wistar rat on the 17th day of pregnancy, and a dispersion liquid thereof was obtained in the same manner as in Example 2. The dispersed cells were suspended in a MCDB153HAA medium (F-Peptide Co., Ltd., Yamagata, Japan) containing 2% fetal bovine serum, penicillin (100 U/mL), streptomycin (100 μg/mL) and epidermal growth factor EGF (5 ng/mL), and sowed on a polyethyleneimine coated 48-hole multi-well plate in an amount of 5×10^5 cells/well. Ghrelin ([…] (nM))) and [^3H]-thymidine (2 μCi/mL) were added thereto, which was then incubated for 24 hours or 48 hours. A culture solution without containing ghrelin was prepared as a control. After the incubation was over, the cells were collected and radioactivity was measured.
The results are shown in FIG. 3 (black triangle: 50 pmol/mL, black square: 5 pmol/mL, black circle: 0.5 pmol/mL, white circle: control).

In assay [2] the test system is cultured fetal skin cell. Briefly: Cell proliferation acceleration (BrdU uptake, Proliferation ELISA) in cultured fetal skin cell. As to conditions: ghrelin 0.05 to 500 pmol/mL (nM) or GHRP6 0.05 to 50 pmol/mL (nM); 24 hours; versus control medium; FIG. 4. The method, then: The fetal skin cells were collected from a Wistar rat on the 17th day of pregnancy, and a dispersion liquid thereof was obtained in the same manner as in Example 2. The dispersed cells with ghrelin (0.05 to 500 pmol/mL (nM)) or GHRP6 (0.05 to 50 pmol/mL (nM)) were suspended in a MCDB153HAA medium (F-Peptide Co., Ltd., Yamagata, Japan) containing 2% fetal bovine serum, penicillin (100 U/mL), streptomycin (100 μg/mL) and epidermal growth factor EGF (5 ng/mL), and sowed on a polyethyleneimine coated 96-hole multi-well plate in an amount of 3×10^4 cells/well. A medium without containing ghrelin or GHRP6 was used as a control. 5-bromo-2′-deoxyuridine (BrdU) (10 μM) was added thereto, which was then incubated for 24 hours. After the culture was over, uptake quantity of BrdU into the fetal skin cell was measured using Proliferation ELISA Kit (Roche Diagnostic GmbH. Manheim, Germany) to consider the skin cell growth activity.
Background: In an ELISA, binding on a coated surface is turned into a signal by an enzyme label.

For assay [3], the system named is fetal skin cell having GHS-R1a. Briefly: Intracellular calcium-increasing activity in cultured fetal skin cell (Fura-2 calcium imaging). As to conditions: single skin cell of rat fetus. The method, then:
A Wistar rat on the 17th day of pregnancy underwent laparotomy under anesthesia for fetus extraction. A small piece of skin was collected from the fetus, treated with collagenase in cold Hank's solution, digested with papain, and mechanically separated by pipetting. This gave a dispersion liquid of the fetal skin cells. A single cell was obtained from the dispersion liquid, ghrelin was added thereto, and calcium imaging was performed. For the calcium imaging, a calcium imaging device (IMACS, Hamamatsu Photonics) was used. That is, the ratio of the emission at a wavelength of 510 nm was measured when excitation was performed by 340 nm/380 nm light. Fura-2 was used as a calcium imaging agent. Ghrelin derived from a rat (SEQ ID NO: 3) was used (the same in the following Examples).
In FIG. 2, I, II and III are the points at which a photograph was taken, but the photographs are omitted from the present description. […] Ghrelin and desacylghrelin were added to different cells, respectively.
In general terms: A change in cytosolic calcium serves as a functional read-out for many receptors and channels.

Square brackets hold non-standard residues; d marks the D form. Ends that are not written are not given here. * marks the point of attachment. Octanoyl = CCCCCCCC(=O)*

As to “GSS (n-octanoyl) FLSPEHQKAQQRKESKKPPAKLQPR (GSS(Octanoyl)FLSPEHQKAQQRKESKKPPAKLQPR; listed as Rattus norvegicus) [ghrelin, 28-residue peptide, serine 3 acylated with n-octanoyl, endogenous GHS-R1a ligand]”, the “uptake of [3H]-thymidine into the cell” value in assay [1] is on record as “increased”. For the same substance, in assay [2], the “uptake of BrdU into the fetal skin cell” value was “significantly increased”. In addition, in assay [3] (ghrelin 1×10^−6 M, day 17 of pregnancy, Fura-2, 340 nm/380 nm ratio, FIG. 2), the “intracellular calcium in a single fetal skin cell” value is recorded as “increase of calcium was observed”.

For “H[dW]AW[dF]K-NH2 [GHRP6, reference compound]”, the “uptake of BrdU into the fetal skin cell” value in assay [2] is “significantly increased”.

On to desacylghrelin [reference compound], for which the “calcium response of a single fetal skin cell (FIG. 2 curve)” value in assay [3] (dotted-line curve of FIG. 2, concentration not given) is on record as “responded”.

(Values after patent US20090181888A1, “Skin Repair Accelerating Therapeutic Agent Containing Ghrelin and Derivatives Thereof or Substance Acting On GHS-R1a as Active Ingredient” (priority 2005, published 2009).)
